pIC50: −log10 of the molar value. Entries after “also recorded” stand apart in the source; their conditions may differ. Like-named read-outs stand apart in the source and are kept apart here.
Assays:
[1] = tested on: Caki-1; assay: Cell proliferation assay (MTS or SRB), Caki-1; type: cell-based; conditions: Homo sapiens, 72 h; Caki-1, Kidney, 3 days; read-out: IC50 (cell growth inhibition)
Protocol: (§1) In vitro cell proliferation assays were performed using a 96-well plate based MTSassay (CellTiter 96° AqueousOne Solution Cell Proliferation Assay, Promega) or SRB (Sulforhodamine-B) assay (1-3). Briefly, cells were plated in 100 μl medium on day 0 in 96-well microtiter plates (Falcon #3072). On day 1, 10 μl of serial dilutions of each compound (Nine 1:2 dilutions with a starting concentration of 100 μM; in some cases, a starting concentration of 400 μM (CMX001 or Cidofovir) or 1 μM (some standard agents)) were added in triplicates to the plates. For standard agents using DMSO as solvent, serial dilutions of DMSO with a starting concentration of 0.5% were also included as a vehicle control.
(§2) After incubation for 3 days at 37° C. in a humidified incubator, viable cells were measured either by MTS or SRB assay. For MTS assay, 20 μl of a 20:1 mixture of (3-(4,5-dimethylthiazol-2-yl)-5-(3-carboxymethoxyphenyl)-2-(4-sulfophenyl)-2H-tetrazolium, inner salt (MTS, 2 mg/ml) and an electron coupling reagent, phenazine methosulfate (PMS, 0.92 mg/ml in DPBS), was added to each well and incubated for 3 hours at 37° C. Absorbance was measured using a BioTek Synergy™ HT Multiple Detection microplate reader at 490 nm. For SRB assay, cells were fixed in situ with 50 μL of cold trichloroacetic acid (TCA, final concentration at 10% w/v) for 60 minutes. Cells were then washed 5 times with H2O and air-dried.
(§3) Next, cells were stained with 20 μL of 0.2% SRB in 1% acetic acid and incubated at room temperature for 30 minutes and unbound SRB was removed by washing 5 times with 1% acetic acid and air-dried. Finally, bound SRB stain was solubilized in 50 μL of 50 μM Tris buffer before taking an optical density measurement at 570 nm using the BioTek microplate reader. The growth inhibition data were expressed as the percentage of cell survival calculated from the background corrected absorbance. The surviving fraction of cells was determined by dividing the mean absorbance values of the test agent-treated samples by the mean absorbance values of untreated control. […]

[2] = tested on: SCaBER; assay: Cell proliferation assay (MTS or SRB), SCaBER; type: cell-based; conditions: Homo sapiens, 72 h, Bladder, 3 days, read-out: IC50 (cell growth inhibition)
Protocol: as §1, §2, §3

[3] = tested on: PC-3; assay: Cell proliferation assay (MTS or SRB), PC-3; type: cell-based; conditions: Homo sapiens, 72 h; PC-3, Prostate, 3 days; read-out: IC50 (cell growth inhibition)
Protocol: as §1, §2, §3

[4] = tested on: PANC-1; assay: Cell proliferation assay (MTS or SRB), PANC-1; type: cell-based; conditions: Homo sapiens, 72 h; PANC-1, Pancreatic, 3 days; read-out: IC50 (cell growth inhibition)
Protocol: as §1, §2, §3

[5] = tested on: HCT-116; assay: Cell proliferation assay (MTS or SRB), HCT-116; type: cell-based, human; conditions: Homo sapiens, 72 h; HCT-116, Colon, 3 days; read-out: IC50 (cell growth inhibition)
Protocol: as §1, §2, §3

[6] = tested on: A2058; assay: Cell proliferation assay (MTS or SRB), A2058; type: cell-based; conditions: Homo sapiens, 72 h; A2058, Skin (melanoma), 3 days; read-out: IC50 (cell growth inhibition)
Protocol: as §1, §2
Next, cells were stained with 20 μL of 0.2% SRB in 1% acetic acid and incubated at room temperature for 30 minutes and unbound SRB was removed by washing 5 times with 1% acetic acid and air-dried. Finally, bound SRB stain was solubilized in 50 μL of 50 μM Tris buffer before taking an optical density measurement at 570 nm using the BioTek microplate reader. The growth inhibition data were expressed as the percentage of cell survival calculated from the background corrected absorbance. The surviving fraction of cells was determined by dividing the mean absorbance values of the test agent-treated samples by the mean absorbance values of untreated control.
Raw data were acquired using a BioTek Synergy™ HT Multiple Detection microplate reader and imported into Microsoft Excel for analysis. The average signal of each treatment was calculated from the triplicates after subtracting the blank signals. The percentage survival values were calculated using the following formula: % survival=(average signal of the drug treatment/average signal of untreated controls)×100. The data were finally imported into the Prism 4 software (GraphPad Software, San Diego, Calif.) to generate the dose-activity curves using non-linear regression curve fit and to calculate the IC50 values.

[7] = tested on: C33A; assay: Cell proliferation assay (MTS or SRB), C33A; type: cell-based, human; conditions: Homo sapiens, C-33-A, 72 h, Cervical, 3 days, read-out: IC50 (cell growth inhibition)
Protocol: as §1, §2, §3

[8] = tested on: BKV(Dunlop); assay: Extracellular BKV load in supernatants of BKV-infected RPTECs (qPCR); type: cell-based
Protocol: For FIG. 1(a), RPTEC supernatants were harvested 72 h p.i. i.e. 70 h post start of treatment with indicated CMX001 concentrations. BKV load was measured by […] and input virus subtracted. DNA load in untreated cells (1.05E+09 Geq/ml) was set as 100%.
FIG. 5 illustrates the influence of CMX001 0.31 μM on BKV extracellular BKV load. […] Supernatants from CMX001-treated and untreated BKV-infected RPTECs were harvested at indicated timepoints after infection and BKV load measured by qPCR. Data are presented as BKV load in Geq/ml.
For FIG. […] Supernatants were harvested 72 h p.i. and extracellular BKV load measured by qPCR. Data are presented in percent of untreated cells set at 100%.
Primary human renal proximal tubule epithelial cells (RPTECs), BKV(Dunlop) and all methods as previously described by Bernhoff et al (See Bernhoff et al., Cidofovir inhibits polyomavirus BK replication in human renal tubular cells downstream of viral early gene expression, Am J Transplant 8, 1413-1422 (2008).) Only one exception, quantitative PCR (qPCR) to quantify intracellular or extracellular BKV DNA load was performed with a different primer/probe set also targeting the LTag gene (See Hirsch, et al., J. Prospective study of polyomavirus type BK replication and nephropathy in renal-transplant recipients, N Engl J. Med., 347, 488-496 (2002)). Before each experiment, CMX001 was freshly dissolved to 1 mg/ml in methanol/water/ammonium hydroxide (50/50/2). It was further diluted in RPTEC growth medium.
To investigate the effect of CMX001 on BKV progeny, increasing concentrations of CMX001 were added 2 h p.i. and supernatants harvested at 72 h p.i. It was observed that CMX001 reduced the extracellular BKV load in a concentration dependent manner (See FIG. 1 a). […] With CMX001 0.31 uM an approximately 60% decrease in BKV agnoprotein expressing cells was seen. The number of cells expressing LTag was less reduced but the signal intensity was lower than in untreated cells. […] The conclusion is that CMX001 reduced the expression of early and late BKV proteins and the production of extracellular progeny but also seemed to affect the proliferation rate of RPTECs at higher concentrations.

| Compound | pIC50 [1] | pIC50 [2] | pIC50 [3] | pIC50 [4] | pIC50 [5] | pIC50 [6] | pIC50 [7] | IC90 ([8]; Betapolyomavirus hominis, Epithelial cell, primary human renal proximal tubule epithelial cells (conclusion), read-out: IC90 against BK virus replication) | extracellular BKV load (timecourse) ([8]; CMX001 0.31 μM, 48 h p.i.) | BKV load in supernatants from treated cells ([8]; CMX001 0.31 μM, 72 h p.i.) | BKV load in supernatants lower than in untreated cells (timecourse) ([8]; CMX001 0.31 μM, 72 h p.i.) | IC90 ([8]; RPTEC, RPTECs, added 2 h p.i., harvested 72 h p.i., viral input subtracted, read-out: inhibitory concentration IC90 (extracellular BKV load)) | effect of pre-treatment on BKV load 72 h p.i. ([8]; RPTECs treated for 4 hours, ending 20 hours before infection) | reduction of viral load by pre-treatment ([8]; RPTECs treated for 23 hours until one hour before infection, 72 h p.i.) |
| --- | --- | --- | --- | --- | --- | --- | --- | --- | --- | --- | --- | --- | --- | --- |
| Nc1ccn(C[C@@H](CO)OCP(=O)(O)O)c(=O)n1 [cidofovir] | < 4.00 | < 4.00 | < 4.00 | < 4.00 | < 4.00 | < 4.00 | 4.01 | – | – | – | – | – | – | – |
| CCCCCCCCCCCCCCCCOCCCOP(=O)(O)CO[C@H](CO)Cn1ccc(N)nc1=O [CMX001] | 4.16 | 4.09 | 5.18 | 4.04 | 4.68 | 4.66 | 4.84 | 0.31 µM | only input virus could be detected; also recorded: only input was detectable | 1.13×10^8 Geq/ml | 84% | 0.31 µM | hardly any effect; also recorded: did not inhibit BKV replication | about 50% |
